The record followed here is patent publication US8334298B2, “Treatment or prevention of ovarian hyperstimulation syndrome (OHSS) using a dopamine agonist” (Ferring International Center S.A., priority 2005, dated 2012).

Where “and” joins values, the source holds several entries; their conditions need not be identical. Identical values can stand only once.

In the assay the test system is OHSS rats. Description: Dose response of quinagolide on vascular permeability in OHSS rats (Example 4). It counts as in vivo, Wistar rats. Particulars: cabergoline 150 ug/kg oral (positive control); single rat; 48-56 h after hCG; listed as Cb. As to the method:
Inducing OHSS manifestations. A total of 96 female immature Wistar rats (Harlan Iberica, Sant Feliu de Codina, Barcelona, SPAIN), weighing from 42-48 grams at the beginning of these experiments (day 22), were used to carry out the studies disclosed in Examples 4 and 5. They were injected subcutaneously (s.c) with 10 IU of Pregnant Mare's Serum Gonadotropin (PMSG) (Sigma) for 4 consecutive days (days 22-25), followed by administered intraperitoneally (i.p.) with 30 IU of hCG on the fifth day (day 26) in order to induce OHSS clinical manifestations.
Measuring vascular permeability (VP). VP was used as an index to estimate and compare the degree of development of the illness. VP was measured in all animals 48-56 hours after hCG administration, following methodology previously described (Gomez et al., supra). Briefly, 0.2 ml Evans Blue dye, 0.05 M, was injected through the femoral vein. After 30 minutes, the peritoneal cavity was irrigated with 5 ml saline, pH 6, 22° C., and massaged for 30 seconds to recover extravasated dye. The peritoneal fluid was recovered in 13 ml tubes containing 0.1 ml NaOH. The tubes were centrifuged at 900×g for 12 minutes to avoid protein interference. The supernatant was filtered through 0.22 um filters in order to eliminate ascitic protein/fibrin mucus which could interfere in the posterior measurements. Finally the absorbance of the extravasated dye was measured at 595 nm using a spectrophotometer. Average and average deviations in each group (see below) were calculated. VP was expressed as μg extravasated Evans Blue dye/100 g body weight in each animal.
A total of 70 rats were used for this study. All 70 rats were administered PMSG/hCG to induce OHSS symptoms, as described above. Quinagolide (batch no. 1010003004; supplied by Ferring Labs) was administered to 56 rats. The 56 rats that received quinagolide were used as a dose response test group. […] Cabergoline (Dostinex®) was administered to 6 rats as a positive control. The specific details of the dosing regimen for each group is as follows:
Vehicle control group (quinagolide 0 μg/kg) (n=8). Eight rats were implanted with prolactin placebo pellets, 5 days release, between 10:00 to 11:00 on day 26, just following hCG injection (see General Procedures, above). Six hours after pellet implantation, the rats in this group were orally administered vehicle solution (1:6 alcohol in water mixture) (without quinagolide). They received another oral vehicle administration of vehicle solution 24 hours later. Experimental groups (quinagolide at 0.1, 0.3, 1, 3, 10, 25, 50 μg/kg/day to 7 test groups of rats) (n=8 in each test group). The rats in these groups were implanted with prolactin pellets, 5 days release, between 10:00 to 11:00 on day 26, just following hCG injection (see General Procedures, above). […] In this manner, the desired 0.1, 0.3, 1, 3, 10, 25, 50 μg/kg doses to be assayed were achieved. Twenty four hours later, the rats in this group were administered with another dose of the same amounts of quinagolide. Positive (cabergoline) control group (n=6). These six rats were implanted with prolactin pellets, 5 days release, between 10:00 to 11:00 .m on day 26, just following hCG injection. […] Twenty four hours later, the rats in this group were administered with another dose of the same amount of cabergoline. […] Reconstitution and dilution process to reach appropriate quinagolide doses for oral administration. Appropriate doses were prepared fresh just prior to being administered (on day 26). A single quinagolide vial, containing approximately 2.30-2.30 mg quinagolide, was employed for each single set of animals. For each solution, approximately 2.30-2.30 mg quinagolide was diluted in a vehicle solution (1:6 alcohol:water mixture) to achieve a stock concentration of 100 μg quinagolide per ml solution. […]

For `C=CCN1C[C@H](C(=O)N(CCCN(C)C)C(=O)NCC)C[C@@H]2c3cccc4[nH]cc(c34)C[C@H]21` [Cabergoline, cabergoline], the “Absorbance at 595 nm” value is 0.356 and 0.034 and 0.1 (2×) and 0.293; the “μg EB per 100 g body weight” value was 21.56 μg EB per 100 g body weight and 2.118 μg EB per 100 g body weight and 6.507 μg EB per 100 g body weight and 6.229 μg EB per 100 g body weight and 17.99 μg EB per 100 g body weight; the “μg Evans Blue (Abs * 4360)” value was 1552.16 μg and 148.24 μg and 436 μg (2×) and 1277.48 μg.
